Laboratory results taken from US9340600B2 (Indiana University Research and Technology Corporation, priority 2012, dated 2016).
*1 amine or outer side, *2 acyl side, *3 side chain or, on linkers, in order; H or OH if unused. Where a SMILES comes first, the peptide text is derived from it. Side-chain parts run from the residue outwards. [ ]: non-standard residue; d: D form. The star is where a group is joined. γGlu = O=C(O)[C@H](CCC(=O)[*:2])N[*:1]; Palmitoyl = CCCCCCCCCCCCCCCC(=O)*; hSer = N[C@@H](CCO)C(=O)O; Nva = CCC[C@H](N)C(=O)O; Aib = CC(C)(N)C(=O)O

Tests used:
[1] = biological target: T1, GLP-1 receptor (Homo sapiens, UniProt P43220); test: cAMP induction, firefly luciferase-based reporter assay in HEK293 cells co-transfected with GLP-1 receptor; type: cell-based; details: EC50 at GLP-1 Receptor
T1 construct: expressed in transfected cells; host or cells: HEK293
Source text: (§1) This example describes an exemplary method of testing the biological activity of the peptides of the present disclosures, which method involves assaying cAMP synthesis.

[2] = biological target: T2, glucagon receptor (Homo sapiens, UniProt P47871); test: cAMP induction, firefly luciferase-based reporter assay in HEK293 cells co-transfected with glucagon receptor; type: cell-based; details: EC50 at Glucagon Receptor
T2 construct: expressed in transfected cells; host or cells: HEK293
Source text: as §1

[3] = biological target: T3, GIP receptor (Homo sapiens, UniProt P48546); test: cAMP induction, firefly luciferase-based reporter assay in HEK293 cells co-transfected with GIP receptor; type: cell-based; details: EC50 at GIP Receptor
T3 construct: expressed in transfected cells; host or cells: HEK293
T3 sequence (P48546 22-466): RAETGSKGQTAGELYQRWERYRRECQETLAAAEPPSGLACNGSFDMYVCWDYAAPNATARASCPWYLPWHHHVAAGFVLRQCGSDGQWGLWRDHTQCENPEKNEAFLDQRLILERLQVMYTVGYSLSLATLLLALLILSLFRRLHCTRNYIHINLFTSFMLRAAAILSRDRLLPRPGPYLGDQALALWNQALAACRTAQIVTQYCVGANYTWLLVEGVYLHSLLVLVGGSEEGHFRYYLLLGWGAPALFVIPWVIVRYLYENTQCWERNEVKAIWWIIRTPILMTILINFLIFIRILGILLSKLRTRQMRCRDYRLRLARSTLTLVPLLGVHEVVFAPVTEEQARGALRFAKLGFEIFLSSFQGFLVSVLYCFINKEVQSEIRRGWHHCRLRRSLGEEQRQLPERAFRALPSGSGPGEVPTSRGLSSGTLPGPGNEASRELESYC
Source text: as §1

[4] = biological target: T3, GIP receptor; details: cited from earlier work
[5] = Table 4, analogs of SEQ ID NO: 43 varying at position 3
[6] = Table 5, analogs of SEQ ID NO: 10

T1 sequence (P43220 24-463): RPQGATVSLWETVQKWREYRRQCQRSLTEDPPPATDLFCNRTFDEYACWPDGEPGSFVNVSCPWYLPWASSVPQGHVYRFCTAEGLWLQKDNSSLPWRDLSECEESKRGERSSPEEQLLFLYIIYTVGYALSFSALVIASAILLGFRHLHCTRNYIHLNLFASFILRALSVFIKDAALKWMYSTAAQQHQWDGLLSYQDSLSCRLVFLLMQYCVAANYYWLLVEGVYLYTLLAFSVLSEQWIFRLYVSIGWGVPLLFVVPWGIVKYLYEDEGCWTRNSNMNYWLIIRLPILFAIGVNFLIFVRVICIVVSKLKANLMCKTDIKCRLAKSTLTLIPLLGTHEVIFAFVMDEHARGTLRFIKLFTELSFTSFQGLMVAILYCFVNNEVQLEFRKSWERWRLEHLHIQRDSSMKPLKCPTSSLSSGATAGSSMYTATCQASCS
T2 sequence (P47871 26-477): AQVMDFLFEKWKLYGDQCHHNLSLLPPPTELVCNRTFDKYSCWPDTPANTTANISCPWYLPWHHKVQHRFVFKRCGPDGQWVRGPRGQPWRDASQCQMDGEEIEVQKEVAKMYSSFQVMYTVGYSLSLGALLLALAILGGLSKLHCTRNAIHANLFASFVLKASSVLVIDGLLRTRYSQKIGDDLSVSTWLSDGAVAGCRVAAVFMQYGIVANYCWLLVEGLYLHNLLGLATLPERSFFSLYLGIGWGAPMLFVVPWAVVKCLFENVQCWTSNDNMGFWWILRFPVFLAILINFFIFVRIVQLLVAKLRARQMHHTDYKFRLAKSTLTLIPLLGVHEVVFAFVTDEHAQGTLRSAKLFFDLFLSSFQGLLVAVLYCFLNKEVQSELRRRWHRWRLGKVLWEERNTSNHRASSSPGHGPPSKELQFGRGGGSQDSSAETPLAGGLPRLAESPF

| Compound | EC50 [1, 5] [pM] | EC50 [2, 5] [pM] | EC50 [3, 5] [pM] | EC50 [1, 6] [pM] | EC50 [2, 6] [pM] | EC50 [3, 6] [pM] | activation of the GIP receptor [4] | activity of native GIP at the GIP receptor ([4]; relative to native GIP) [%] |
| --- | --- | --- | --- | --- | --- | --- | --- | --- |
| CCCCCCCCCCCCCCCC(=O)N[C@@H](CCC(=O)NCCCC[C@H](NC(=O)[C@H](CC(=O)O)NC(=O)[C@H](CO)NC(=O)[C@@H](NC(=O)[C@H](Cc1ccccc1)NC(=O)[C@@H](NC(=O)CNC(=O)[C@H](CCC)NC(=O)C(C)(C)NC(=O)[C@@H](N)Cc1c[nH]cn1)[C@@H](C)O)[C@@H](C)O)C(=O)N[C@@H](CO)C(=O)N[C@@H](CCCCN)C(=O)N[C@@H](Cc1ccc(O)cc1)C(=O)N[C@@H](CC(C)C)C(=O)N[C@@H](CC(=O)O)C(=O)N[C@@H](CCC(=O)O)C(=O)N[C@@H](CCCNC(=N)N)C(=O)N[C@@H](C)C(=O)N[C@@H](C)C(=O)N[C@@H](CCC(N)=O)C(=O)N[C@@H](CC(=O)O)C(=O)N[C@@H](Cc1ccccc1)C(=O)N[C@H](C(=O)N[C@@H](CCC(N)=O)C(=O)N[C@@H](Cc1c[nH]c2ccccc12)C(=O)N[C@@H](CC(C)C)C(=O)N[C@@H](CC(C)C)C(=O)N[C@@H](CCC(=O)O)C(=O)NCC(=O)NCC(=O)N1CCC[C@H]1C(=O)N[C@@H](CO)C(=O)N[C@@H](CO)C(=O)NCC(=O)N[C@@H](C)C(=O)N1CCC[C@H]1C(=O)N1CCC[C@H]1C(=O)N1CCC[C@H]1C(=O)N[C@@H](CO)C(N)=O)C(C)C)C(=O)O [compound 47] (H-H[Aib][Nva]GTFTSDK([γGlu-Palmitoyl])SKYLDERAAQDFVQWLLEGGPSSGAPPPS-NH2) | 3 | 25 | 2 |  |  |  |  |  |
| CCCCCCCCCCCCCCCC(=O)N[C@@H](CCC(=O)NCCCC[C@H](NC(=O)[C@H](CC(=O)O)NC(=O)[C@H](CO)NC(=O)[C@@H](NC(=O)[C@H](Cc1ccccc1)NC(=O)[C@@H](NC(=O)CNC(=O)[C@H](CCO)NC(=O)C(C)(C)NC(=O)[C@@H](N)Cc1c[nH]cn1)[C@@H](C)O)[C@@H](C)O)C(=O)N[C@@H](CO)C(=O)N[C@@H](CCCCN)C(=O)N[C@@H](Cc1ccc(O)cc1)C(=O)N[C@@H](CC(C)C)C(=O)N[C@@H](CC(=O)O)C(=O)N[C@@H](CCC(=O)O)C(=O)N[C@@H](CCCNC(=N)N)C(=O)N[C@@H](C)C(=O)N[C@@H](C)C(=O)N[C@@H](CCC(N)=O)C(=O)N[C@@H](CC(=O)O)C(=O)N[C@@H](Cc1ccccc1)C(=O)N[C@H](C(=O)N[C@@H](CCC(N)=O)C(=O)N[C@@H](Cc1c[nH]c2ccccc12)C(=O)N[C@@H](CC(C)C)C(=O)N[C@@H](CC(C)C)C(=O)N[C@@H](CCC(=O)O)C(=O)NCC(=O)NCC(=O)N1CCC[C@H]1C(=O)N[C@@H](CO)C(=O)N[C@@H](CO)C(=O)NCC(=O)N[C@@H](C)C(=O)N1CCC[C@H]1C(=O)N1CCC[C@H]1C(=O)N1CCC[C@H]1C(=O)N[C@@H](CO)C(N)=O)C(C)C)C(=O)O [compound 48] (H-H[Aib][hSer]GTFTSDK([γGlu-Palmitoyl])SKYLDERAAQDFVQWLLEGGPSSGAPPPS-NH2) | 3 | 16 | 4 |  |  |  |  |  |
| CCCCCCCCCCCCCCCC(=O)N[C@@H](CCC(=O)NCCCC[C@H](NC(=O)[C@H](CC(=O)O)NC(=O)[C@H](CO)NC(=O)[C@@H](NC(=O)[C@H](Cc1ccccc1)NC(=O)[C@@H](NC(=O)CNC(=O)[C@H](CCC(N)=O)NC(=O)C(C)(C)NC(=O)[C@@H](N)Cc1c[nH]cn1)[C@@H](C)O)[C@@H](C)O)C(=O)N[C@@H](CO)C(=O)N[C@@H](CCCCN)C(=O)N[C@@H](Cc1ccc(O)cc1)C(=O)N[C@@H](CC(C)C)C(=O)N[C@@H](CC(=O)O)C(=O)N[C@@H](CCC(=O)O)C(=O)N[C@@H](CCCNC(=N)N)C(=O)N[C@@H](C)C(=O)N[C@@H](C)C(=O)N[C@@H](CCC(N)=O)C(=O)N[C@@H](CC(=O)O)C(=O)N[C@@H](Cc1ccccc1)C(=O)N[C@H](C(=O)N[C@@H](CCC(N)=O)C(=O)N[C@@H](Cc1c[nH]c2ccccc12)C(=O)N[C@@H](CC(C)C)C(=O)N[C@@H](CC(C)C)C(=O)N[C@@H](CC(=O)O)C(=O)N[C@H](C(=O)NCC(=O)N1CCC[C@H]1C(=O)N[C@@H](CO)C(=O)N[C@@H](CO)C(=O)NCC(=O)N[C@@H](C)C(=O)N1CCC[C@H]1C(=O)N1CCC[C@H]1C(=O)N1CCC[C@H]1C(=O)N[C@@H](CO)C(N)=O)C(C)C)C(C)C)C(=O)O [compound 63] (H-H[Aib]QGTFTSDK([γGlu-Palmitoyl])SKYLDERAAQDFVQWLLDVGPSSGAPPPS-NH2; N-terminus assumed) |  |  |  | 3 | 4 | 55 |  |  |
| CCCCCCCCCCCCCCCC(=O)N[C@@H](CCC(=O)NCCCC[C@H](NC(=O)[C@H](CC(=O)O)NC(=O)[C@H](CO)NC(=O)[C@@H](NC(=O)[C@H](Cc1ccccc1)NC(=O)[C@@H](NC(=O)CNC(=O)[C@H](CCC(N)=O)NC(=O)C(C)(C)NC(=O)[C@@H](N)Cc1c[nH]cn1)[C@@H](C)O)[C@@H](C)O)C(=O)N[C@@H](CO)C(=O)N[C@@H](CCCCN)C(=O)N[C@@H](Cc1ccc(O)cc1)C(=O)N[C@@H](CC(C)C)C(=O)N[C@@H](CC(=O)O)C(=O)N[C@@H](CCC(=O)O)C(=O)N[C@@H](CCCNC(=N)N)C(=O)N[C@@H](C)C(=O)N[C@@H](C)C(=O)N[C@@H](CCC(N)=O)C(=O)N[C@@H](CC(=O)O)C(=O)N[C@@H](Cc1ccccc1)C(=O)N[C@H](C(=O)N[C@@H](CCC(N)=O)C(=O)N[C@@H](Cc1c[nH]c2ccccc12)C(=O)N[C@@H](CC(C)C)C(=O)N[C@@H](CC(C)C)C(=O)N[C@@H](CC(=O)O)C(=O)N[C@@H](C)C(=O)NCC(=O)N1CCC[C@H]1C(=O)N[C@@H](CO)C(=O)N[C@@H](CO)C(=O)NCC(=O)N[C@@H](C)C(=O)N1CCC[C@H]1C(=O)N1CCC[C@H]1C(=O)N1CCC[C@H]1C(=O)N[C@@H](CO)C(N)=O)C(C)C)C(=O)O [compound 64] (H-H[Aib]QGTFTSDK([γGlu-Palmitoyl])SKYLDERAAQDFVQWLLDAGPSSGAPPPS-NH2) |  |  |  | 3 | 2 | 19 |  |  |
| CCCCCCCCCCCCCCCC(=O)N[C@@H](CCC(=O)NCCCC[C@H](NC(=O)[C@H](CC(=O)O)NC(=O)[C@H](CO)NC(=O)[C@@H](NC(=O)[C@H](Cc1ccccc1)NC(=O)[C@@H](NC(=O)CNC(=O)[C@H](CCC(N)=O)NC(=O)C(C)(C)NC(=O)[C@@H](N)Cc1c[nH]cn1)[C@@H](C)O)[C@@H](C)O)C(=O)N[C@@H](CO)C(=O)N[C@@H](CCCCN)C(=O)N[C@@H](Cc1ccc(O)cc1)C(=O)N[C@@H](CC(C)C)C(=O)N[C@@H](CC(=O)O)C(=O)N[C@@H](CCC(=O)O)C(=O)N[C@@H](CCCNC(=N)N)C(=O)N[C@@H](C)C(=O)N[C@@H](C)C(=O)N[C@@H](CCC(N)=O)C(=O)N[C@@H](CC(=O)O)C(=O)N[C@@H](Cc1ccccc1)C(=O)N[C@H](C(=O)N[C@@H](CCC(N)=O)C(=O)N[C@@H](Cc1c[nH]c2ccccc12)C(=O)N[C@@H](CC(C)C)C(=O)N[C@@H](CC(C)C)C(=O)N[C@@H](CC(=O)O)C(=O)NC(C)(C)C(=O)NCC(=O)N1CCC[C@H]1C(=O)N[C@@H](CO)C(=O)N[C@@H](CO)C(=O)NCC(=O)N[C@@H](C)C(=O)N1CCC[C@H]1C(=O)N1CCC[C@H]1C(=O)N1CCC[C@H]1C(=O)N[C@@H](CO)C(N)=O)C(C)C)C(=O)O [compound 65] (H-H[Aib]QGTFTSDK([γGlu-Palmitoyl])SKYLDERAAQDFVQWLLD[Aib]GPSSGAPPPS-NH2; N-terminus assumed) |  |  |  | 3 | 2 | 5 |  |  |
| Native glucagon: native human glucagon (SEQ ID NO: 1) |  |  |  |  |  |  | does not activate the GIP receptor | ~0 |
